Data from publication PMC3356272, “An Analogue of the Antibiotic Teicoplanin Prevents Flavivirus Entry In Vitro” (PLoS ONE, 2012).

What was measured:
[1] = system: uninfected host cell cultures; experiment: Cell counting with a Coulter Counter; format: cell-based; settings: 50 and 100 µM, cells counted with a Coulter Counter
DENV subgenomic replicon = experiment: DENV replicon system; format: cell-based, dengue virus; settings: BHK-Rep-Pac-LUC cells, luciferase at 72 hours
YFV-17D [2] = format: cell-based, yellow fever virus
DiD-labeled DENV = experiment: Fusion assay with DiD-labeled DENV; format: cell-based, dengue virus; settings: BS-C-1 cells; for membrane fusion activity of DENV, reference controls: NH4Cl 50 mM, chlorpromazine 60 µM
YFV-17D [3] = format: cell-based, yellow fever virus; remark: listed apart in the source
DENV-2 NGC [4] = experiment: CPE-reduction assay; settings: 25 and 12.5 µM, Vero-B cells, day 8 p.i.
DENV-2 = experiment: Virucidal assay; settings: 50 µM, 1 h, 37°C, with or without RNase A
dengue reporter virus = format: cell-based
DENV-2 NGC [5] = format: cell-based, dengue virus

Row | Structure (SMILES) | cytotoxic effects (P388D1 cells) | cytostatic effects [1] | replication of the DENV subgenomic replicon (DENV subgenomic replicon) | YFV NS1 protein expression (YFV-17D [2]) | membrane fusion activity of DENV (DiD-labeled DENV; 20 min p.i. at 37°C, 6.25-25.0 µM) | inhibition of viral replication (YFV-17D [3]) | protective activity against YFV (YFV-17D [3]) | DENV-2-induced CPE formation (DENV-2 NGC [4]) | direct virucidal activity (DENV-2) | inhibition of DENV infection (dengue reporter virus) | inhibition of viral replication and viral antigen expression (dengue reporter virus) | DENV E protein expression (DENV-2 NGC [5]) | cytotoxicity (Vero-B cells) | viability of uninfected host cell cultures (Vero-B cells) | CC50 (Vero-B cells; green monkey) [µM] | membrane fusion activity of DENV, reference controls (DiD-labeled DENV)
1 | CC(C)(C)OC(=O)NC1C(=O)NC2Cc3ccc(c(Cl)c3)Oc3cc4cc(c3O)Oc3ccc(cc3Cl)C(O)C3NC(=O)C(NC(=O)C4NC(=O)C(NC2=O)c2cc(O)cc(c2)Oc2cc1ccc2O)c1ccc(O)c(c1)-c1c(O)cc(O)cc1C(C(=O)NC1C2CC4CC(C2)CC1C4)NC3=O (centres unmarked) [LCTA-949] | No cytotoxic effects | some cytostatic effects | did not inhibit | completely inhibited | markedly impaired | nearly complete inhibition | most of the protective activity of LCTA-949 was already lost | completely inhibited | does not destroy the viral particle | failed to efficiently inhibit | nearly complete inhibition | completely inhibited | did not prove cytotoxic | did not reduce viability | > 100 | –
2 | Cl.N [ammonium chloride] | – | – | – | – | – | – | – | – | – | – | – | – | – | – | – | efficiently reduced
3 | CN(C)CCCN1c2ccccc2Sc2ccc(Cl)cc21 [chlorpromazine] | – | – | – | – | – | – | – | – | – | – | – | – | – | – | – | efficiently reduced
